14 compounds from ChEMBL document CHEMBL4406890, “Discovery of a novel bicyclic compound, DS54360155, as an orally potent analgesic without mu-opioid receptor agonist activity” (Bioorg Med Chem Lett, 2019) can be followed below.

The subject of data set [1] is Mus musculus. In words: Analgesic activity in ddY mouse model of acetic acid-induced writhing assessed as inhibition of writhing numbers at 30 mg/kg, po pretreated for 30 mins followed by acetic acid challenge and measured for 25 mins relative to control. The format is functional. On the technique in general: Writhing tests count abdominal constrictions after an irritant is injected.

The nature of data set [2]: 1-Octanol/phosphate buffered-saline distribution coefficient, logD of compound at pH 7.4. The format is physicochemical.
For the next data set, the target named is hERG (KCNH2) (Homo sapiens, UniProt Q12809). As to the kind of experiment: Inhibition of human ERG at 10 uM relative to control.
Sequence of hERG (KCNH2) (Q12809 whole entry): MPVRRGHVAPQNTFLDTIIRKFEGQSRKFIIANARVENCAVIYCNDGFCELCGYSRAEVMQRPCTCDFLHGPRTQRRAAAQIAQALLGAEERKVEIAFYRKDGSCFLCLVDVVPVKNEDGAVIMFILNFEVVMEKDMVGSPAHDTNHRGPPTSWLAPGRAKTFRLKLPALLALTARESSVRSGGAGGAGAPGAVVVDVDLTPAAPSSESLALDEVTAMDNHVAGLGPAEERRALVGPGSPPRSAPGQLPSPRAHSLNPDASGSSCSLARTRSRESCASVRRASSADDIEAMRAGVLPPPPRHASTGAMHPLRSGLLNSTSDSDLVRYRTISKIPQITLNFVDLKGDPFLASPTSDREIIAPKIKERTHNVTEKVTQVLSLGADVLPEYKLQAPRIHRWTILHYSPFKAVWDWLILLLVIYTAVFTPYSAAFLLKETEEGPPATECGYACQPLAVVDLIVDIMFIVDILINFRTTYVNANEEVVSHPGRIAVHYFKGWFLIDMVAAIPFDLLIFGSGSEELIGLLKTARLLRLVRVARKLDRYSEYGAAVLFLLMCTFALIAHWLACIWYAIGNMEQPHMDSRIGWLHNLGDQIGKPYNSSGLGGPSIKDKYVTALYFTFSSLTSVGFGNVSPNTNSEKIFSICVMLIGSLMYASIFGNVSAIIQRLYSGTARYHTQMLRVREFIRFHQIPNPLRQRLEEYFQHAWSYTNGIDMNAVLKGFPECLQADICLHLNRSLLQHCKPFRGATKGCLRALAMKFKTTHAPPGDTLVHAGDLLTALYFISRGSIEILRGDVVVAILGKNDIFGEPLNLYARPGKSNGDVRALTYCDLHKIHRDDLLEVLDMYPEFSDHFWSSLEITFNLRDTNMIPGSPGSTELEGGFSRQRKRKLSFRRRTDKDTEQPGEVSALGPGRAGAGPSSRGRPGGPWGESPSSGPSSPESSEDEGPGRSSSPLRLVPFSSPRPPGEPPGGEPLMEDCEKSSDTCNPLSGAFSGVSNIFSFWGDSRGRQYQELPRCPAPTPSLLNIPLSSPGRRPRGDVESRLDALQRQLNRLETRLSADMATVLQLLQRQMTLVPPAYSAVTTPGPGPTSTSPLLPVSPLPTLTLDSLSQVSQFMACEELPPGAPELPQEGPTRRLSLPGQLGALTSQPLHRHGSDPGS
Data set [3] can be described thus: Metabolic stability in CD1 mouse liver microsomes assessed as parent compound remaining incubated for 0.5 hrs in presence of beta-NADP by LC-MS/MS analysis. The note with it: read-out: Stability. The format is ADME, Microsome.
The test system of data set [4] is Mus musculus. As to the kind of experiment: Analgesic activity in oral dosed ddY mouse model of acetic acid-induced writhing pretreated for 30 mins followed by acetic acid challenge and measured for 25 mins. The format is functional.
Data set [5] in a line: Half-life in ddY mouse at 10 mg/kg, po measured after 3 mins by LC-MS/MS analysis. The format is ADME, organism-based. As to conditions: in vivo.
Data set [6] can be described thus: AUC in ddY mouse at 10 mg/kg, po measured after 3 mins by LC-MS/MS analysis. The format is ADME, organism-based. Details: time < 0.05 hr, dose 10 mg/kg, route oral. The note with it: in vivo.
Data set [7] in a line: Cmax in ddY mouse at 10 mg/kg, po measured after 3 mins by LC-MS/MS analysis. The format is ADME, organism-based. Further details: dose 10 mg/kg, route oral. The note with it: in vivo.
For data set [8], the target named is T1, Mu-type opioid receptor (Homo sapiens, UniProt P35372). As to the kind of experiment: Agonist activity at human mu opioid receptor expressed in CHOK1 cells assessed as inhibition of forskolin-induced cAMP production by FRET assay. The format is cell-based.
T1 sequence (P35372 whole entry): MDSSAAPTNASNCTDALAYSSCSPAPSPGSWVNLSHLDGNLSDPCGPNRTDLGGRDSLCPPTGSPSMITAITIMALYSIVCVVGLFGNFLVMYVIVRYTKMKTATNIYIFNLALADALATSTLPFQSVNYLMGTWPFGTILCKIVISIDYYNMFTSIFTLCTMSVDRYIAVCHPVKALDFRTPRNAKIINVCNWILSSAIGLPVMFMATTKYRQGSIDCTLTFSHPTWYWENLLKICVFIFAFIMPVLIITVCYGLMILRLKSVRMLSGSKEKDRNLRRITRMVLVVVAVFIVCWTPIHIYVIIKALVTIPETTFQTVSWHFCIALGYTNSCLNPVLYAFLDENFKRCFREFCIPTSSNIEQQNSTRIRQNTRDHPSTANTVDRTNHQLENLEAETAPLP
The target of data set [9] is T1, Mu-type opioid receptor. In words: Displacement of [3H]-diprenorphin from human mu opioid receptor incubated for 1 hr. The format is ADME. For orientation: In a radioligand displacement assay an active substance lowers the binding of a labelled ligand.
Data set [10] concerns Mus musculus. As to the kind of experiment: Analgesic activity in ddY mouse assessed as reduction in total time spent in paw licking and biting during initial phase at 30 mg/kg, po pretreated for 30 mins followed by formalin challenge and measured for 15 mins post formalin challenge by formalin test relative to control. The format is functional.
A short description of data set [11]: Volume of distribution in ddY mouse at 1 mg/kg, iv measured after 3 mins by LC-MS/MS analysis. The format is ADME, organism-based. As to conditions: in vivo.
The nature of data set [12]: Clearance in ddY mouse at 1 mg/kg, iv measured after 3 mins by LC-MS/MS analysis. The format is ADME, organism-based. The note with it: in vivo.
Data set [13] deals with T1, Mu-type opioid receptor. As to the kind of experiment: Agonist activity at human mu opioid receptor expressed in CHOK1 cells assessed as inhibition of forskolin-induced cAMP production by FRET assay relative to DAMGO. The format is cell-based. (Changes in cAMP serve as a functional read-out for many G protein-coupled receptors.)
For data set [14], the system named is Mus musculus. In words: Analgesic activity in ddY mouse model of acetic acid-induced writhing assessed as inhibition of writhing numbers at 3 mg/kg, po pretreated for 30 mins followed by acetic acid challenge and measured for 25 mins relative to control. The format is functional.
Data set [15] has as its system Mus musculus. As to the kind of experiment: Analgesic activity in ddY mouse model of acetic acid-induced writhing assessed as inhibition of writhing numbers at 10 mg/kg, po pretreated for 30 mins followed by acetic acid challenge and measured for 25 mins relative to control. The format is functional.

Take `CN1CCCC(=O)c2[nH]c3ccccc3c2C1`: in the data set on Mus musculus [1], the inhibition in vivo (usually the drop in the measured response relative to a control, in per cent) at 30 mg/kg was found to be 31%. The logD (commonly the decadic logarithm of the distribution of all forms, ionised or not, between an organic phase and buffer at a given pH) in [2] is 1.1. Also, the inhibition (usually how much of the control response was suppressed) at 10 µM on hERG (KCNH2) was 50%. Besides, in [3], the remaining at 0.5 h was found to be 53%.
As to `CN1C(=O)c2[nH]c3ccccc3c2CN2CCC1C2.O=S(=O)(O)O` (racemic), the inhibition in vivo at 30 mg/kg in the data set with Mus musculus [1] came to 83%. For the same compound, the logD in data set [2] was 0.7. The ED50 (commonly the dose at which the effect has come halfway, by size or by number of responders) in the data set with Mus musculus [4] was found to be 21 mg/kg. The half-life (commonly the time needed for the level to fall by half in the phase considered) in data set [5] is 1.69 h. Further, on hERG (KCNH2), the inhibition at 10 µM is 26%. In addition, the AUC (commonly the area under the concentration-time curve, a measure of exposure) at 0.05 h in data set [6] was 3.29 µM·h. Moreover, in data set [7], the Cmax (in general, the highest concentration seen after dosing) was determined as 1.46 µM. For the same compound, the remaining at 0.5 h in [3] was > 100%.
On to `CN1C(=O)c2[nH]c3ccccc3c2CN2CC[C@@H]1C2.O=S(=O)(O)O`, for which the inhibition in vivo at 30 mg/kg turned out to be 49% in the data set on Mus musculus [1] and 30% with Mus musculus [10]. On Mu-type opioid receptor [8], the EC50 (as a rule, the concentration giving half of the maximal effect) was > 100 µM. Also, the logD in data set [2] turned out to be 0.7. In the data set with Mus musculus [4], the ED50 was 27 mg/kg. Besides, the IC50 (commonly the concentration that inhibits the measured activity by half) at Mu-type opioid receptor [9] is > 100 µM. This compound also showed a half-life in data set [5] of 2.52 h. The inhibition at 10 µM on hERG (KCNH2) was 23%. This compound also registered an AUC at 0.05 h in data set [6] of 12.2 µM·h. Also, in data set [11], the Vd – broadly, the apparent volume that relates the amount in the body to the concentration in plasma or blood – came to 1.14 L/kg. In data set [7], the concentration peaked (Cmax) at 2.99 µM. The clearance (commonly the rate of elimination divided by the concentration) in [12] turned out to be 0.774 L/h/kg. The Emax (usually the maximal effect, on the per cent scale that the assay sets) at Mu-type opioid receptor [13] turned out to be 18%. Further, in data set [3], the remaining at 0.5 h is > 100%.
With `CN1C(=O)c2[nH]c3ccccc3c2CN2CC[C@H]1C2.O=S(=O)(O)O`, the values for the inhibition in vivo at 30 mg/kg with Mus musculus [1] and in the data set on Mus musculus [10] were 95% and 83%, respectively. On Mu-type opioid receptor [8], the EC50 was > 100 µM. In [2], the logD amounted to 0.7. In addition, the ED50 in the data set with Mus musculus [4] stood at 12 mg/kg. The IC50 on Mu-type opioid receptor [9] is > 100 µM. For the same compound, the inhibition in vivo at 3 mg/kg with Mus musculus [14] was 19%. Further, the half-life in data set [5] is 2.27 h. Also, at hERG (KCNH2), the inhibition at 10 µM amounted to 14%. In [6], the AUC at 0.05 h worked out at 5.8 µM·h. The volume of distribution (Vd) in data set [11] worked out at 1.72 L/kg. The inhibition in vivo at 10 mg/kg in the data set on Mus musculus [15] came out at 23%. Further, in data set [7], the peak level (Cmax) was 2.15 µM. This compound had a clearance in [12] of 1.49 L/h/kg. Moreover, the maximal response (Emax) at Mu-type opioid receptor [13] amounted to 19%. For the same compound, the remaining at 0.5 h in [3] was 99%.
For `CN1C(=O)c2[nH]c3ccccc3c2CN2CCC[C@H]1C2`, the inhibition in vivo at 30 mg/kg in the data set with Mus musculus [1] came out at 77%. This compound also gave a logD in [2] of 1. In the data set with Mus musculus [4], the ED50 came out at 23 mg/kg. In [5], this compound showed a half-life of 2.18 h. This compound also displayed an inhibition at 10 µM against hERG (KCNH2) of 38%. The same compound yielded an AUC at 0.05 h in data set [6] of 1.59 µM·h. Further, in data set [7], the Cmax is 0.72 µM. The remaining at 0.5 h in data set [3] amounted to 74%.
As to `CCN1C(=O)c2[nH]c3ccccc3c2CN2CCC1C2` (racemic), the inhibition in vivo at 30 mg/kg in the data set on Mus musculus [1] was found to be 43%. The same compound displayed a logD in [2] of 1.1. Also, the inhibition at 10 µM against hERG (KCNH2) was 14%. Besides, in data set [3], the remaining at 0.5 h is 91%.
Turning to `C/C=C1/CN2CC[C@H]1C(=O)c1[nH]c3ccccc3c1C2.O=S(=O)(O)O`, the inhibition in vivo at 30 mg/kg came to 49% in the data set with Mus musculus [1] and 43% in the data set with Mus musculus [10]. Moreover, the EC50 at Mu-type opioid receptor [8] was > 100 µM. In the data set with Mus musculus [4], the ED50 was 32 mg/kg. The compound also showed an inhibition at 10 µM on hERG (KCNH2) of 63%. Moreover, the remaining at 0.5 h in data set [3] stood at 34%.
As to `O=C1c2[nH]c3ccccc3c2CN2CCC3(CCCN13)C2` (racemic), in the data set with Mus musculus [1], the inhibition in vivo at 30 mg/kg was determined as 47%. This compound yielded a logD in data set [2] of 1.2. For the same compound, at hERG (KCNH2), testing at 10 µM gave an inhibition of 13%. Further, the remaining at 0.5 h in [3] was 82%.
In the same order, the values of `O=C1c2[nH]c3ccccc3c2CN2CCC(C2)N1C1CC1` (racemic) are 55%, 1.1, 19% and 92%.
Take `CN1C(=O)c2[nH]c3ccccc3c2CN2CCC[C@@H]1C2`: the inhibition in vivo at 30 mg/kg in the data set with Mus musculus [1] amounted to 65%. Besides, in data set [2], the logD came out at 0.9. The remaining at 0.5 h in data set [3] turned out to be 82%.
Turning to `CCCN1C(=O)c2[nH]c3ccccc3c2CN2CCC1C2` (racemic), the inhibition in vivo at 30 mg/kg with Mus musculus [1] was 44%. Besides, in data set [2], the logD amounted to 1.6. The same compound gave an inhibition at 10 µM against hERG (KCNH2) of 43%. Also, the remaining at 0.5 h in data set [3] came out at 72%.
The like results for `CC12CCCN(CC1)Cc1c([nH]c3ccccc13)C2=O` (racemic) were, in that order, 21%, 1.5, 88% and 91%.
In the same order, the values of `CCN1CCCC(=O)c2[nH]c3ccccc3c2C1` are 36%, 1.3, 73% and 49%.
For `CN1C(=O)c2[nH]c3ccccc3c2CN2CCC1(C)C2` (racemic), the inhibition in vivo at 30 mg/kg with Mus musculus [1] is 37%. Also, the logD in data set [2] is 0.7. This compound had an inhibition at 10 µM on hERG (KCNH2) of 36%. The remaining at 0.5 h in data set [3] was 93%.
